Results from the Deep4Chem optical property database.
Blank lines part the entries; values can stand above or below the compound they belong to.

Assay: solvent given as SMILES

SMILES: c1ccc([B-]2(c3ccccc3)Oc3ccc4ccccc4c3-c3c4ccccc4cc[n+]32)cc1
- emission maximum (in Cc1ccccc1): 522 nm

- emission maximum (in CO): 802 nm
SMILES: CC1(C)C(/C=C/C2=C(Cl)C(=C/C=C3/N(CCCS(=O)(=O)[O-])c4ccccc4C3(C)C)/CCC2)=[N+](CCCS(=O)(=O)[O-])c2ccccc21

SMILES: CC1(C)c2ccccc2N(c2ccc(-c3cnc(C#N)nc3)cc2)c2ccccc21
- emission maximum (in Cc1ccccc1): 524 nm
- emission maximum (in N#Cc1ccc2c(c1)c1ccccc1n2-c1cccc(-n2c3ccccc3c3ccccc32)c1): 526 nm

SMILES: Cc1ccc(C2=C3C=CC(C#Cc4ccccc4)=[N+]3[B-](F)(F)n3c(Cl)ccc32)cc1
- emission maximum (in C1CCCCC1): 575 nm
- emission maximum (in C1CCOC1): 573 nm
- emission maximum (in C1COCCO1): 575 nm
- emission maximum (in CCOC(C)=O): 571 nm
- emission maximum (in CO): 569 nm
- emission maximum (in Cc1ccccc1): 577 nm
- emission maximum (in ClC(Cl)Cl): 577 nm

- emission maximum (in ClCCl): 489 nm
SMILES: Cc1cc(-c2ccc(C(C)(C)C)cc2)c2nsnc2c1-c1ccc(C(C)(C)C)cc1

- emission maximum (in ClCCl): 404 nm
SMILES: Cc1c(C)c(-c2ccc(-c3cccnc3)cc2)c(C)c(C)c1B(c1c(C)c(C)c(-c2ccc(-c3cccnc3)cc2)c(C)c1C)c1c(C)c(C)c(-c2ccc(-c3cccnc3)cc2)c(C)c1C

SMILES: Cc1ccc(-n2c(-c3ccccc3[N-]S(=O)(=O)c3ccc(C)cc3)[nH+]c3c4ccccc4c4ccccc4c32)cc1
- emission maximum (in Cc1ccccc1): 506 nm

SMILES: CC1(C)c2ccccc2N(c2ccc(-c3cc(-c4ccccc4)nc(-c4ccccc4)n3)cc2)c2ccccc21
- emission maximum (in Cc1ccccc1): 475.6 nm

- emission maximum (in ClCCl): 514 nm
SMILES: O=C1OC(=O)C2=C1S[C@]13C2=C[C@H](c2ccccc21)c1ccccc13

- emission maximum (in C1CCOC1): 408 nm
- emission maximum (in CC#N): 491 nm
- emission maximum (in CCOC(C)=O): 412 nm
- emission maximum (in CN(C)C=O): 449 nm
- emission maximum (in ClCCl): 442 nm
SMILES: CCn1c2ccc(/C=C/c3ccc4c(c3)c3cc(-c5nc6ccccc6s5)ccc3n4CC)cc2c2cc(-c3nc4ccccc4s3)ccc21

SMILES: O=C1c2ccc(-c3ccc(N(c4ccccc4)c4ccccc4)cc3)cc2C(=O)c2ccc(-c3ccc(N(c4ccccc4)c4ccccc4)cc3)cc21
- emission maximum (in Cc1ccccc1): 597 nm
- emission maximum (in c1ccc2c(c1)c1ccccc1n2-c1ccc(-c2ccc(-n3c4ccccc4c4ccccc43)cc2)cc1): 594 nm

SMILES: F[B-]1(F)Oc2c(ccc3c4c(ccc23)C=[N+](c2ccccc2)[B-](F)(F)O4)C=[N+]1c1ccccc1
- emission maximum (in Cc1ccccc1): 538 nm
- emission maximum (in ClCCl): 533 nm

- emission maximum (in C1CCOC1): 418 nm
SMILES: Cc1ccc(-c2cnc3nn4ccccc4c3c2)cc1

- emission maximum (in ClC(Cl)Cl): 544 nm
SMILES: Cc1c2c(c(C)c3ccccc13)C1=C2C=CC2Nc3ccccc3NC12 (centres undefined)

- emission maximum (in CS(C)=O): 508 nm
SMILES: c1csc(-c2nc3ccccc3c3cc4ccccn4c23)c1

- emission maximum (in C1CCOC1): 472 nm
SMILES: CCCCOc1cc(C=C2c3ccccc3-c3ccccc32)c(OCCCC)cc1C=C1c2ccccc2C=Cc2ccccc21

- emission maximum (in CC#N): 589 nm
SMILES: CC1=C(/C=C/c2ccccc2)C2=Cc3c(/C=C/c4ccccc4)c(C)c(C)n3[B-](F)(F)[N+]2=C1C

SMILES: c1ccc(-c2nc(-c3ccccc3)nc(-n3c4ccccc4c4cc(-n5c6ccccc6c6ccccc65)ccc43)n2)cc1
- emission maximum (in C1CCOC1): 535.43 nm
- emission maximum (in Cc1ccccc1): 502.82 nm

- emission maximum (in CC#N): 604 nm
SMILES: Cc1ccc(S(=O)(=O)Nc2cc(-c3ccc(N(C)C)cc3)sc2/C=C/c2ccccc2)cc1

- emission maximum (in ClC(Cl)Cl): 443 nm
SMILES: Cc1ccc(C2=Cc3ccc4ccccc4[n+]3[B-](F)(F)O2)cc1

SMILES: CN(C)c1ccc(/C=C/c2cc[n+](CCC[n+]3ccc(/C=C/c4ccc(N(C)C)cc4)cc3)cc2)cc1
- emission maximum (in CC1COC(=O)O1): 604 nm
- emission maximum (in CC#N): 609 nm
- emission maximum (in CC(C)=O): 608 nm
- emission maximum (in CC(C)O): 594 nm
- emission maximum (in CCO): 601 nm
- emission maximum (in CN(C)C=O): 607 nm
- emission maximum (in CO): 604 nm
- emission maximum (in CS(C)=O): 610 nm
- emission maximum (in ClC(Cl)Cl): 566 nm
- emission maximum (in O): 597 nm
- emission maximum (in c1ccncc1): 598 nm

- emission maximum (in CC#N): 780 nm
- emission maximum (in CCO): 763 nm
- emission maximum (in CO): 768 nm
- emission maximum (in ClC(Cl)Cl): 775 nm
SMILES: C[N+]1=C(/C=C/C2=C3Oc4c(cc5c6c4CCCN6CCC5)C(c4ccccc4C(=O)O)=C3CCC2)C(C)(C)c2c1ccc1ccccc21

SMILES: Cc1ccccc1[B-]1(c2ccccc2C)n2nc(C(F)(F)F)cc2-c2c3ccccc3cc[n+]21
- emission maximum (in C1CCCCC1): 414 nm
- emission maximum (in Cc1ccccc1): 414 nm
- emission maximum (in ClCCl): 412 nm

- emission maximum (in CC#N): 470 nm
SMILES: C=Cc1cc2ccc(N(CC)CC)cc2oc1=O

- emission maximum (in ClCCl): 425 nm
SMILES: c1ccc(C2c3ccc4ccc5ccccc5c4c3-c3c2ccc2ccc4ccccc4c32)cc1

SMILES: O=CN1N=C(c2ccc(Br)cc2)C[C@@H]1c1ccccc1
- emission maximum (in C1CCCCC1): 348 nm
- emission maximum (in C1COCCO1): 352 nm
- emission maximum (in CC#N): 351 nm
- emission maximum (in CCO): 345 nm
- emission maximum (in CCOC(C)=O): 350 nm
- emission maximum (in CO): 350 nm
- emission maximum (in CS(C)=O): 356 nm
- emission maximum (in Cc1ccccc1): 349 nm
- emission maximum (in ClC(Cl)(Cl)Cl): 351 nm

SMILES: Cc1c(C)c(N2c3ccccc3CCc3ccccc32)c(C)c(C)c1-c1nc(-c2ccccc2)nc(-c2ccccc2)n1
- emission maximum (in Cc1ccccc1): 457.94 nm

SMILES: N#Cc1c(N2c3ccccc3C(c3ccccc3)(c3ccccc3)c3ccccc32)cccc1N1c2ccccc2C(c2ccccc2)(c2ccccc2)c2ccccc21
- emission maximum (in Cc1ccccc1): 454 nm
- emission maximum (in O=P(c1ccccc1)(c1ccccc1)c1ccccc1Oc1ccccc1P(=O)(c1ccccc1)c1ccccc1): 466 nm

- emission maximum (in ClCCl): 458 nm
SMILES: CCCCC(CC)Cn1c2cc(C#N)ccc2c2ccc(C#Cc3ccc4ccc5c(C#Cc6ccc7c8ccc(C#N)cc8n(CC(CC)CCCC)c7c6)cc(C#Cc6ccc7c8ccc(C#N)cc8n(CC(CC)CCCC)c7c6)c6ccc3c4c56)cc21 (centres undefined)

- emission maximum (in ClCCl): 421 nm
SMILES: CC1(C)c2cc(-c3ccc4ccc5cccc6ccc3c4c56)ccc2-c2ccc(-c3ccc4ccc5cccc6ccc3c4c56)cc21

- emission maximum (in ClC(Cl)Cl): 635 nm
SMILES: CCCCN1c2ccccc2Sc2cc(/C=C\c3cc(=O)oc4ccc(C)cc34)ccc21

- emission maximum (in C1CCOC1): 473 nm
SMILES: N#Cc1c(N2CCCCC2)cc(-c2ccc3ccc4cccc5ccc2c3c45)c2c1C(=O)c1ccccc1-2

- emission maximum (in O): 530 nm
SMILES: CN(C)c1ccc2cc3ccc(N(C)C)cc3nc2c1

- emission maximum (in ClCCl): 503 nm
SMILES: O=C(O)C1=C(C(=O)O)C2=C[C@H]3c4ccccc4[C@]2(S1)c1ccccc13

SMILES: CCCN1C(=O)c2c3c(c4c(c2C1=O)CCc1cc(-c2ccc(N(C)C)cc2)c(OC)cc1-4)-c1cc(OC)c(-c2ccc(N(C)C)cc2)cc1CC3
- emission maximum (in C1CCCCC1): 511 nm
- emission maximum (in C1CCOC1): 602 nm
- emission maximum (in CCOC(C)=O): 598 nm
- emission maximum (in Cc1ccccc1): 548 nm
- emission maximum (in ClCCl): 613 nm

- emission maximum (in C1CCCCC1): 336 nm
SMILES: C[Si](C)(C)C#Cc1cccc2ccccc12

- emission maximum (in ClCCl): 526 nm
SMILES: Fc1ccccc1-c1c2cc(Cl)ccc2nc2cc3ccccc3cc12

SMILES: Cc1ccc(C2=C3C=CC([Te]c4ccccc4)=[N+]3[B-](F)(F)n3c([Te]c4ccccc4)ccc32)cc1
- emission maximum (in C1CCOC1): 659 nm

SMILES: COC(=O)/C(C#N)=c1\s/c(=c2/s/c(=C(/C#N)C(=O)OC)c3cc(-c4ccccc4)sc23)c2sc(-c3ccccc3)cc12
- emission maximum (in Cc1ccccc1): 640 nm

SMILES: CCN(CC)c1ccc2cc(-c3csc(N)c3C#N)c(=O)oc2c1
- emission maximum (in C1CCOC1): 458 nm
- emission maximum (in CO): 514 nm
- emission maximum (in CS(C)=O): 482 nm
- emission maximum (in Cc1ccccc1): 447 nm
- emission maximum (in ClCCl): 464 nm

- emission maximum (in ClC(Cl)Cl): 475 nm
SMILES: C(#Cc1ccccc1)C(C#Cc1ccccc1)=Cc1ccc(C=C(C#Cc2ccccc2)C#Cc2ccccc2)cc1

- emission maximum (in ClCCl): 502 nm
SMILES: Cc1ccc2nc3cc4c(cc3c(-c3ccccc3)c2c1)[Si](C)(C)O[Si](C)(C)O[Si]4(C)C

- emission maximum (in CC#N): 439 nm
SMILES: Brc1ccc(-c2pc3ccccc3s2)cc1 (centres undefined)

SMILES: CCC1=C(C)C2=C(c3cc(C4=C5C(C)=C(CC)C(C)=[N+]5[B-](F)(F)n5c(C)c(CC)c(C)c54)cc(C4=C5C(C)=C(CC)C(C)=[N+]5[B-](F)(F)n5c(C)c(CC)c(C)c54)c3)c3c(C)c(CC)c(C)n3[B-](F)(F)[N+]2=C1C
- emission maximum (in C1CCOC1): 567 nm
- emission maximum (in CC#N): 556 nm
- emission maximum (in CN(C)C=O): 570 nm
- emission maximum (in Cc1ccccc1): 571 nm
- emission maximum (in ClC(Cl)Cl): 571 nm

- emission maximum (in CO): 653 nm
- emission maximum (in ClC(Cl)Cl): 664 nm
SMILES: CC[n+]1c(C=C2C(=O)C(C=C3N(C)c4ccc(Cl)cc4C3(C)C)=C2[O-])sc2ccccc21

SMILES: Cc1ccc(-c2c3ccc([nH]3)c3nc(c(-c4ccc([N+](=O)[O-])cc4)c4ccc([nH]4)c4ccc([nH]4)c(-c4ccc(C)cc4)c4ccc2o4)C=C3)cc1
- emission maximum (in C1CCOC1): 758 nm
- emission maximum (in Cc1ccccc1): 737 nm
- emission maximum (in c1ccccc1): 737 nm

SMILES: COC(=O)c1ccc(-c2ccc(-c3nnc(-c4ccc(-c5nnc(-c6ccc(-c7ccc(C(=O)OC)cc7)s6)o5)cc4)o3)s2)cc1
- emission maximum (in C1COCCO1): 400 nm
- emission maximum (in CC#N): 400 nm
- emission maximum (in CC(=O)N(C)C): 417 nm
- emission maximum (in CCCCCCCCCCO): 408 nm
- emission maximum (in CCCCCCCCO): 399 nm
- emission maximum (in CCCCCCO): 389 nm
- emission maximum (in CCCCO): 394 nm
- emission maximum (in CCO): 400 nm
- emission maximum (in CS(C)=O): 420 nm
- emission maximum (in Cc1ccccc1): 399 nm
- emission maximum (in ClC(Cl)Cl): 397 nm

- emission maximum (in C1CCOC1): 720 nm
- emission maximum (in CS(C)=O): 748 nm
- emission maximum (in ClCCl): 721 nm
SMILES: COc1cc(OC)cc(C2=C3C(C)=C(I)C(/C=C/c4c[nH]c5ccc([N+](=O)[O-])cc45)=[N+]3[B-](F)(F)n3c(/C=C/c4c[nH]c5ccc([N+](=O)[O-])cc45)c(I)c(C)c32)c1

- emission maximum (in ClCCl): 401 nm
SMILES: CCCCN1c2ccccc2B(c2ccccc2C(F)(F)F)c2ccccc21

- emission maximum (in CS(C)=O): 420 nm
SMILES: Brc1ccc(-c2nc3sc4ccccc4c3s2)cc1

SMILES: CCC1=C(C)C2=C(c3ccc(-c4c5ccccc5c(-c5ccccc5)c5ccccc45)cc3)c3c(C)c(CC)c(C)n3[B-](F)(F)[N+]2=C1C
- emission maximum (in CC#N): 534 nm
- emission maximum (in CCCCCC): 536 nm
- emission maximum (in CCO): 537 nm
- emission maximum (in CN(C)C=O): 537 nm
- emission maximum (in Cc1ccccc1): 539 nm
- emission maximum (in ClCCl): 540 nm

- emission maximum (in ClCCl): 443 nm
SMILES: CN1c2ccc3c(c2-c2ccccc2S1(=O)=O)-c1ccccc1S(=O)(=O)N3C

- emission maximum (in CC#N): 477 nm
- emission maximum (in ClCCl): 474 nm
SMILES: COC(=O)c1cc(=O)n(Cc2ccccc2)c2cc(-c3ccc(OC)cc3)sc12
